Assay [1] has as its system MCF-7 cells. To be noted: 24 hours, FIG. 3. The procedure: The MCF-7 cells were treated with aripiprazole (1, 5, 10, 20 μM) alone or in combination with radiation. After 24 hours, after washing with PBS, proteins were extracted from the cells, and the degree of PARP cleavage was confirmed by Western blot.
(§1) After 24 hours, after washing with PBS, proteins were extracted from the cells, and the degree of PARP cleavage was confirmed by Western blot.
as §1

The test system of another assay is U251 cells. The assay can be described thus: DNA fragmentation, Cell Death Detection ELISA plus kit. The assay is classed as cell-based. The note with it: U251, combination with radiation vs single treatments, 24 hours, FIG. 4. The procedure:
(§2) After the MCF-7 cells or U251 cells were adjusted to a concentration of 5000 cells/well, they were inoculated into a 96 well plate and pre-cultured for 24 hours. Thereafter, the medium was removed and aripiprazole was treated alone or in combination with radiation. After 24 hours, the degree of DNA fragmentation was confirmed using Roche's Cell Death Detection ELISA plus kit.

For assay [2], the system named is MCF-7 cells. To be noted: MCF-7, combination with radiation vs single treatments, 24 hours, FIG. 4. The procedure: as §2
(§3) After 24 hours, the degree of DNA fragmentation was confirmed using Roche's Cell Death Detection ELISA plus kit.
as §3

Assay [3] has as its system MCF-7 cells. Description: Drug library screen for radiation sensitizers, EZ-Cytox cell viability. Type of assay: cell-based, human. Further details: dose or concentration left out as unconfirmed. The note with it: 96 hours, FIG. 1. The procedure: MCF-7 cells, a human breast cancer cell line, were adjusted to a concentration of 5000 cells/well, then inoculated into a 96 well plate and pre-cultured for 24 hours. Subsequently, the medium was removed, and each drug in Enzo's drug library at a concentration of […] was treated alone or in combination with radiation. After 96 hours, the survival rate of cells was measured by Dogen's EZ-Cytox Cell Viability Assay kit.

The subject of assay [4] is MCF-7 cells. Description: Cell viability at various aripiprazole concentrations alone or with radiation (EZ-Cytox). Type of assay: cell-based, human. To be noted: 96 hours, FIG. 2. The protocol: In order to confirm the effect of aripiprazole on radiation sensitivity in cancer cells, a cell viability measurement experiment was performed in breast cancer cells having radiation resistance using the […] as follows. After the MCF-7 cells were adjusted to a concentration of 5000 cells/well, they were inoculated into a 96-well plate and pre-cultured for 24 hours. Thereafter, the medium was removed and aripiprazole ([…]) was treated alone or in combination with radiation. After 96 hours, the survival rate of cells was measured by Dogen's EZ-Cytox Cell Viability Assay kit.

In the case of `O=C1CCc2ccc(OCCCCN3CCN(c4cccc(Cl)c4Cl)CC3)cc2N1` [aripiprazole, 7-{4-[4-(2,3-dichlorophenyl)-1-piperazinyl]-butoxy}-3,4-dihydro-2(1H)-quinolinone], the “induction of apoptosis in radiation-treated cancer cells” value in the assay on MCF-7 cells [1] (MCF-7, aripiprazole 1, 5, 10, 20 μM with radiation) is reported as “induce apoptosis in radiation-treated cancer cells in a concentration-dependent manner”. In addition, the “PARP cleavage induction effect” value in the assay with MCF-7 cells [1] (MCF-7, aripiprazole 1, 5, 10, 20 μM, combination with radiation vs alone) is “more excellent when treated in combination with radiation than treated aripiprazole alone”. Moreover, the “DNA fragmentation inducing effect” value with U251 cells and in the assay on MCF-7 cells [2] was “superior to the effect of adding up each treatment” each time. The “survival rate of cells” value in the assay with MCF-7 cells [3] (MCF-7, drug treatment alone) is recorded as “no effect on the survival rate of cells”; in the assay with MCF-7 cells [3] (MCF-7, in combination with radiation), “lowers the survival rate of radiation-resistant cells”. In addition, the radiation sensitizing effect result in the assay with MCF-7 cells [4] (MCF-7, aripiprazole 5, 10, 20 μM with radiation) is “excellent radiation sensitizing effect in a concentration-dependent manner”. For the same compound, in the assay on MCF-7 cells [4] (MCF-7, aripiprazole 5, 10, 20 µM, combination with radiation vs alone), the “survival rate reduction effect” value is reported as “more excellent when treated in combination with radiation than the treatment with aripiprazole alone”.

Source of the values: US20260272916A1, “RADIATION SENSITIVITY ENHANCING COMPOSITION CONTAINING ARIPIPRAZOLE AS ACTIVE INGREDIENT” (KOREA INSTITUTE OF RADIOLOGICAL & MEDICAL SCIENCES, priority 2018, published 2026).
